Results published in US4904667A, “1H-1,2,4-thiadiazolo(3,4-b)quinazolin-5-one-2,2-dioxides, and a method for increasing the cardiac output of a mammal with them” (Ortho Pharmaceutical Corporation, priority 1989, dated 1990).
Like-named read-outs stand apart in the source and are kept apart here.

How the values were obtained:
[1] = system: dog tracheal smooth muscle; test: Procedure II: Inhibition of calcium dependent smooth muscle contraction (KCl-challenged dog tracheal rings); details: Canis lupus familiaris, 50 mM KCl contraction, dog trachea
Protocol: INHIBITION OF CALCIUM DEPENDENT SMOOTH MUSCLE CONTRACTION
Farley, J. M. and Miles, P. R. The Sources of Calcium for Acetylcholine-Induced Contractions of Dog Tracheal Smooth Muscle. J. Pharmacol. Exp. Ther. 207: 340-346,l 1978.
Canines, guinea pigs and rabbits
Trachea from dogs killed by excess KCl injection are stored overnight at 4° C. in oxygenated Krebs-Henseleit buffer. Tracheal rings, one cartilage segment wide (5-10 mm), are cut starting from the bronchial end. After cutting the cartilage, the trachealis muscle tissue is suspended in oxygenated Krebs-Henseleit buffer at 37° C. in a 25 ml tissue bath. After a 60 minutes equilibration period, the tissues are challenged with 10 μM carbachol. After 5 minutes the tissues are rinsed and allowed to rest 50 minutes. The tissues are then challenged with 50 mM KCl and, after 30 minutes, the contractions are quantitated. The tissues are then rinsed and reequilibrated for 50 minutes. Test compounds are then added for 10 minutes, and the tissue is rechallenged with 50 mM KCl. After 30 minutes, the contraction is recorded and used to determine the % inhibition of control.
The percent inhibition of smooth muscle contraction is calculated from response data before and after drug treatment. [formula]

Dog = test: Procedure III: Acute In Vivo Cardiotonic Evaluation (cardiac force in anesthetized dogs); details: for Procedure III % Change CF (cardiac force): dose 1.9 mpk, i.v., anesthetized dog, vs pretreatment control
Protocol: Acute In Vivo Cardiotonic Evaluation
Cardiotonic Activity of Amrinone-Win 40680. Alousi, A. A., Farah, A. I., Lester, G. Y. and Opalka, C. J. Circ. Res. 45:666, 1979.
Adult mongrel dogs are anesthetized with sodium pentobarbital and artifically respired. Arterial pressure is recorded via a femoral artery and the pressure pulse is used to trigger a cardiotachometer for heart rate. Left ventricular pressure is measured with a Millar catheter and dP/dt is derived. Cardiac output is determined by measuring ascending aortic blood flow with an electromagnetic flow probe and myocardial contractile force is measured with a Walton Brodie strain gauge sutured to the right ventricle. Lead II EKG is also recorded.
A standard dose of dopamine or dobutamine is administered to assess myocardial responsiveness.
Test compounds are administered by i.v. infusion or bolus administration and the effects on cardiovascular parameters are determined.
Dose related effects of the test compound on blood pressure, heart rate, dP/dt max. (dp/dt represents the rate at which blood pressure rises), cardiac force, and cardiac output are compared to pretreatment control values, expressed as a % change and rated for activity. Statistical evaluations are made using the appropriate parametric test against a vehicle control.

[2] = target: cyclic nucleotide phosphodiesterase fraction III; test: Procedure I: Cyclic Nucleotide Phosphodiesterase Assay; assay type: biochemical
[3] = concentration inhibiting 50% of cyclic nucleotide phosphodiesterase activity, cyclic AMP substrate, pH 7.4, read-out: Procedure I IC50

| IC50 [2, 3] [µM] | IC50 ([2]; fraction III, read-out: IC50 versus cyclic nucleotide phosphodiesterase fraction III) [µM] | SMILES | inhibition at 10 µM [1] [%] | inhibition at 2 µM [1] [%] | Procedure III % Change CF (cardiac force) (Dog) [%] | cardiac force increased (Dog; dog, intravenously at 1.9 mg/kg) [%] |
| --- | --- | --- | --- | --- | --- | --- |
| 35 |  | COc1cc2nc3n(c(=O)c2cc1OC)CS(=O)(=O)N3 [Example 3, 7,8-Dimethoxy-1H-1,2,4-thiadiazolo[3,4-b]quinazolin-5-one-2,2-dioxide] |  | 13 | 8 |  |
| 70 |  | O=c1c2cc(Cl)ccc2nc2n1CS(=O)(=O)N2 [Example 6, 7-Chloro-1H-1,2,4-thiadiazolo[3,4-b]quinazolin-5-one-2,2-dioxide] | 18 |  |  |  |
| 150 |  | O=c1c2ccc(Cl)cc2nc2n1CS(=O)(=O)N2 [Example 7, 8-Chloro-1H-1,2,4-thiadiazolo[3,4-b]quinazolin-5-one-2,2-dioxide] | 31 |  |  |  |
| 150 |  | O=c1c2ccccc2nc2n1CS(=O)(=O)N2 [Example 8, 1H-1,2,4-Thiadiazolo[3,4-b]quinazolin-5-one-2,2-dioxide] | 20 |  |  |  |

The remaining lines, values behind:

| SMILES | IC50 [2, 3] [µM] | IC50 ([2]; fraction III, read-out: IC50 versus cyclic nucleotide phosphodiesterase fraction III) [µM] | inhibition at 10 µM [1] [%] | inhibition at 2 µM [1] [%] | Procedure III % Change CF (cardiac force) (Dog) [%] | cardiac force increased (Dog; dog, intravenously at 1.9 mg/kg) [%] |
| --- | --- | --- | --- | --- | --- | --- |
| O=c1c2cc([N+](=O)[O-])ccc2nc2n1CS(=O)(=O)N2 [Example 2, 7-Nitro-1H-1,2,4-thiadiazolo[3,4-b]quinazolin-5-one-2,2-dioxide] |  |  | 9 |  |  |  |
| COc1ccc2nc3n(c(=O)c2c1OC)CS(=O)(=O)N3 [Example 4, 6,7-Dimethoxy-1H-1,2,4-thiadiazolo[3,4-b]quinazolin-5-one-2,2-dioxide] |  |  |  | 43 | 22 |  |
| O=c1c2cc(Cl)c(Cl)cc2nc2n1CS(=O)(=O)N2 [Example 5, 7,8-Dichloro-1H-1,2,4-thiadiazolo[3,4-b]quinazolin-5-one-2,2-dioxide] |  |  |  | 11 |  |  |
| CN(C(=O)CCCOc1ccc2nc3n(c(=O)c2c1)CS(=O)(=O)N3)C1CCCCC1 [Example 9, 7-(N-Cyclohexyl-N-methyl-4-amino-4-oxobutyloxy)-1H-1,2,4-thiadiazolo[3,4-b]quinazolin-5-one-2,2-dioxide] | 13 | 13 |  |  | 37 | 37 |
